Results taken from ChEMBL document CHEMBL1201862, “PubChem BioAssay data set” (2004).
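Five concentrations, 48 hours, 96-well plates. GI50 is the concentration that inhibits growth by half.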 The source made the active and inactive calls. Rule as the data show it: active = GI50 up to about 1.1 µM and inactive = higher.

Columns and labels:
Test in all cases: growth of human tumour cells (NCI), 48 h
786-0 = test system: 786-0
A549 = test system: A549
BT-549 = test system: BT-549
CCRF-CEM = test system: CCRF-CEM
HCT-116 = test system: HCT-116
HOP-92 = test system: HOP-92
Hs-578T = test system: Hs-578T
M14 = test system: M14
MDA-MB-231 = test system: MDA-MB-231
NCI-H226 = test system: NCI-H226
OVCAR-8 = test system: OVCAR-8
RPMI-8226 = test system: RPMI-8226
RXF 393 = test system: RXF 393
SF-295 = test system: SF-295
SF-539 = test system: SF-539
SK-OV-3 = test system: SK-OV-3
SNB-19 = test system: SNB-19
T47D = test system: T47D
UACC-257 = test system: UACC-257
Malme-3M = test system: Malme-3M

Measured: GI50

CC1(C)C=C(/C=C2/N(S(=O)(=O)C(F)(F)F)C(/C=C3/N(S(=O)(=O)C(F)(F)F)C(C)(C#N)CC3(C)C)=CC2(C)C)N=C1/C=C1/CC(C)(C)C(=O)N1 (configuration not stated)
inactive: 786-0 20.7 µM | A549 32.8 µM | BT-549 27.2 µM | CCRF-CEM 2.84 µM | HCT-116 3.73 µM | HOP-92 24.7 µM | Hs-578T 16.2 µM | M14 29.3 µM | MDA-MB-231 23.1 µM | NCI-H226 22.7 µM | OVCAR-8 4.57 µM | RPMI-8226 3.93 µM | RXF 393 18.6 µM | SF-295 14.3 µM | SF-539 24.8 µM | SK-OV-3 45.7 µM | SNB-19 52.5 µM | T47D 6.07 µM | UACC-257 20.6 µM

NNC(=O)CSc1nc2ccc(I)cc2c(=O)n1Cc1ccccc1
inactive: 786-0 15.6 µM | A549 24.3 µM | BT-549 23.2 µM | CCRF-CEM 3.89 µM | HCT-116 18.4 µM | HOP-92 30.5 µM | Hs-578T 20.9 µM | M14 18.2 µM | MDA-MB-231 14.3 µM | NCI-H226 18.8 µM | OVCAR-8 48.4 µM | RPMI-8226 21.6 µM | RXF 393 13.1 µM | SF-295 21.9 µM | SF-539 19.7 µM | SK-OV-3 15.7 µM | SNB-19 23.3 µM | T47D 22.5 µM | UACC-257 19.9 µM

N=C(CC/C(N)=N/O)NO
inactive: 786-0 > 100 µM | A549 > 100 µM | BT-549 > 100 µM | HCT-116 > 100 µM | HOP-92 > 100 µM | Hs-578T > 100 µM | M14 38.7 µM | MDA-MB-231 > 100 µM | Malme-3M > 100 µM | NCI-H226 > 100 µM | RXF 393 > 100 µM | SF-295 > 100 µM | SNB-19 > 100 µM | T47D > 100 µM | UACC-257 > 100 µM

Cc1ccc(Nc2n[nH]c(=S)s2)cc1C
inactive: 786-0 > 100 µM | A549 79.4 µM | BT-549 > 100 µM | CCRF-CEM 72.9 µM | HCT-116 > 100 µM | HOP-92 > 100 µM | Hs-578T > 100 µM | M14 > 100 µM | MDA-MB-231 > 100 µM | Malme-3M > 100 µM | OVCAR-8 > 100 µM | RPMI-8226 81.5 µM | RXF 393 > 100 µM | SF-295 79.6 µM | SF-539 > 100 µM | SK-OV-3 > 100 µM | SNB-19 > 100 µM | T47D 27.4 µM | UACC-257 > 100 µM

CCOC(=O)NC
inactive: 786-0 > 100 µM | A549 > 100 µM | BT-549 > 100 µM | CCRF-CEM > 100 µM | HCT-116 > 100 µM | HOP-92 > 100 µM | Hs-578T > 100 µM | M14 > 100 µM | MDA-MB-231 > 100 µM | Malme-3M > 100 µM | RPMI-8226 > 100 µM | RXF 393 > 100 µM | SF-295 > 100 µM | SF-539 > 100 µM | SK-OV-3 > 100 µM | SNB-19 > 100 µM | T47D > 100 µM | UACC-257 > 100 µM

COc1ccc(OC)c(C2CCc3c(cnc4nc(N)nc(N)c34)C2)c1 (configuration not stated)
inactive: 786-0 4.48 µM | A549 1.24 µM | BT-549 14.3 µM | HCT-116 1.83 µM | HOP-92 13.2 µM | Hs-578T 15.7 µM | M14 1.3 µM | MDA-MB-231 12.2 µM | Malme-3M 4.83 µM | NCI-H226 24.9 µM | OVCAR-8 5.36 µM | RXF 393 15.8 µM | SF-295 7.23 µM | SF-539 22.8 µM | SK-OV-3 16 µM | SNB-19 6.92 µM | T47D 20.7 µM | UACC-257 4.28 µM

Nc1cc(S(=O)(=O)O)cc2ccc(S(=O)(=O)O)cc12
inactive: 786-0 > 100 µM | A549 > 100 µM | BT-549 > 100 µM | CCRF-CEM > 100 µM | HCT-116 > 100 µM | HOP-92 > 100 µM | Hs-578T > 100 µM | M14 > 100 µM | MDA-MB-231 > 100 µM | Malme-3M > 100 µM | OVCAR-8 > 100 µM | RPMI-8226 > 100 µM | RXF 393 > 100 µM | SF-295 > 100 µM | SF-539 > 100 µM | SK-OV-3 > 100 µM | SNB-19 > 100 µM | T47D > 100 µM | UACC-257 > 100 µM

CN(C)CCNc1ccc(NCCN(C)C)c2c1C(=O)c1ncsc1C2=O
inactive: 786-0 9.1 µM | A549 11.9 µM | BT-549 18.1 µM | CCRF-CEM 3.08 µM | HCT-116 8.18 µM | HOP-92 15.2 µM | Hs-578T 17.7 µM | M14 18.2 µM | MDA-MB-231 15.9 µM | NCI-H226 2.53 µM | OVCAR-8 12.5 µM | RPMI-8226 10.6 µM | RXF 393 18.6 µM | SF-295 12.8 µM | SF-539 12.9 µM | SK-OV-3 18.8 µM | SNB-19 18.6 µM | T47D > 100 µM | UACC-257 18.5 µM

COc1ccc(NC(S)=Nc2cccc(C)n2)cc1
inactive: 786-0 54 µM | BT-549 > 100 µM | CCRF-CEM > 100 µM | HCT-116 > 100 µM | HOP-92 39.5 µM | Hs-578T 58.2 µM | M14 > 100 µM | MDA-MB-231 > 100 µM | NCI-H226 > 100 µM | OVCAR-8 96.8 µM | RPMI-8226 > 100 µM | RXF 393 28.4 µM | SF-295 33.3 µM | SF-539 74.6 µM | SK-OV-3 > 100 µM | SNB-19 > 100 µM | T47D > 100 µM | UACC-257 > 100 µM

Cc1cn(CCCCCCOC(=O)NC(CCCNC(=N)N)C(=O)O)c(=O)[nH]c1=O (configuration not stated)
inactive: 786-0 > 100 µM | A549 > 100 µM | BT-549 > 100 µM | CCRF-CEM > 100 µM | HCT-116 > 100 µM | HOP-92 > 100 µM | Hs-578T > 100 µM | M14 > 100 µM | MDA-MB-231 > 100 µM | NCI-H226 > 100 µM | OVCAR-8 > 100 µM | RPMI-8226 > 100 µM | RXF 393 > 100 µM | SF-295 > 100 µM | SF-539 > 100 µM | SK-OV-3 > 100 µM | SNB-19 > 100 µM | T47D > 100 µM | UACC-257 > 100 µM

COc1cc([C@@H]2c3cc4c(cc3[C@@H](c3c(O)cc(O)c5c3O[C@H](c3ccc(O)c(O)c3)[C@H](OC(=O)c3cc(O)c(O)c(O)c3)C5)[C@H]3COC(=O)[C@H]23)OCO4)cc(OC)c1OC
inactive: 786-0 12.6 µM | A549 11.9 µM | BT-549 > 34.4 µM | CCRF-CEM 2.44 µM | HCT-116 5 µM | HOP-92 > 100 µM | Hs-578T 4.07 µM | M14 9.93 µM | MDA-MB-231 4.52 µM | NCI-H226 2.65 µM | OVCAR-8 7.1 µM | RPMI-8226 5 µM | RXF 393 4.67 µM | SF-295 3.91 µM | SF-539 4.22 µM | SK-OV-3 9.46 µM | SNB-19 52.7 µM | T47D > 100 µM | UACC-257 43.1 µM
